Here are results for one molecule from article PMC12584836, “Rubus caesius leaves and stems in antiaging skin care products: antityrosinase, anticollagenase, antimicrobial activity, and transdermal distribution of main phenolic acids” (Pharmaceutical Biology, 2025).

Holding throughout (test): Antibacterial broth microdilution
Holding throughout (assay type): cell-based
Background: In broth dilution the organism is exposed to a series of concentrations in liquid medium.

In assay [1] the test system is B. subtilis ATCC6633. Conditions: Bacillus subtilis, standard. The procedure: (§1) Brain-heart infusion broth (BHI, Becton Dickinson) supplemented with 10% bovine serum was used for the cultivation of Streptococcus. […] Corynebacterium diphtheriae ZMF was cultured in Brain-heart infusion broth (BHI, Becton Dickinson) supplemented with 10% bovine serum under aerobic conditions at 37 °C for 72 h. Fungal strains-Candida albicans (ATCC10231), Candida albicans (ATCC26790), Candida [NT]200), Candida krusei (ATCC6258), Candida parapsilosis (ATCC22019) were grown in Sabourauda broth (SB, Becton Dickinson), under aerobic conditions at 37 °C for 72 h. For post-incubation viability assessment, BHI blood agar plates, MH agar plates, and Sabouraud agar plates were used. Active cultures were prepared by transferring cells from stock cultures into appropriate broth, as described above. […] Cultures were then diluted in the same broth to achieve an optical density corresponding to approximately 10^6 colony-forming units per milliliter (CFU/mL) for all bacteria strains except C. acnes and C. diphtheriae ZMF. […] [2014]). The minimum inhibitory concentration (MIC) was determined using the broth microdilution method in 96-well plates. Each well was filled with 100 μL of broth. […] These solutions were serially diluted and added to the first well of each row. Serial twofold dilutions were performed by transferring 100 μL from well to well up to the twelfth well, from which 100 μL was discarded. […] Ampicillin served as the reference standard, with concentrations ranging from 128 to 0.0625 μg/mL. Plates were incubated under the appropriate conditions at 37 °C for […] (Clostridium sp. was incubated anaerobically). MIC values were determined by visual observation and defined as the lowest extract concentration that prevented visible microbial growth. To determine the minimum bactericidal concentration (MBC), 100 μL from wells showing no visible growth were plated on agar media. […] The MBC was defined as the lowest concentration of extracts required to completely eliminate viable microorganisms (Hałasa et al. [2014]).

For assay [2], the system named is C. acnes ATCC6919. The conditions noted are these: Cutibacterium acnes, standard. The procedure:
as §1

Assay [3] deals with C. diphtheriae. Conditions: Corynebacterium diphtheriae, standard. The procedure:
as §1

Assay [4] deals with M. catarrhalis PCM2340. The conditions noted are these: Moraxella catarrhalis, standard. The procedure:
as §1

Assay [5] deals with S. epidermidis ATCC14990. Conditions: Staphylococcus epidermidis, standard. The method, then: as §1
Assay [6] relates to S. equinus ATCC15351. Conditions: Streptococcus equinus, standard. The method, then: as §1
The test system of assay [7] is Streptococcus β hemolytic group G. The conditions noted are these: S. β-hemolytic group G, standard. The method, then:
as §1

Values after ≈ are worked out from the molar mass of the structure shown.

Consider `CC1(C)S[C@@H]2[C@H](NC(=O)[C@H](N)c3ccccc3)C(=O)N2[C@H]1C(=O)O` [Ampicillin, ampicillin], for which the MIC (as a rule, the lowest concentration found to suppress growth) in assay [1] worked out at 0.4 µg/mL (≈ 1.14 µM); in assay [2], 32 µg/mL (≈ 91.6 µM); in assay [3], 16 µg/mL (≈ 45.8 µM); in assay [4], 2.5 µg/mL (≈ 7.15 µM); in assay [5], 0.3 µg/mL (≈ 0.859 µM); in assay [6], 16 µg/mL (≈ 45.8 µM). For the same molecule, the lowest concentration to inhibit growth in assay [7] (MIC) was 16 µg/mL (≈ 45.8 µM).
